Values of other authors as cited in patent US10548876B2 (Race Oncology Ltd., priority 2013, dated 2020).
Counter-ions that a name gives are not always drawn. Like-named read-outs stand apart in the source and are kept apart here.

Legend:
telomerase = conditions: by interfering with substrate recognition
[1] = system: telomerase-expressing cells and ALT-positive cell lines
[2] = target: glycogen synthase kinase-3β (GSK-3β) (Homo sapiens, UniProt P49841)
double-stranded DNA = conditions: under physiological conditions, threading mode
[3] = system: colon 26, Lewis lung, Ridgway osteosarcoma, B16, Lieberman plasma cell, P388 or L1210 cancer cells
metastatic breast cancer = conditions: patients with metastatic breast cancer
human colon cancer = human colon cancer tested in vitro or in vivo
[4] = system: refractory malignant melanoma
[5] = not given; remark: listed apart in the source
[6] = over 96 hr
[7] = triphasic elimination
[8] = one report; interpreted as tissue sequestration with depot effect
[9] = 72-hr infusion
[10] = 5 day schedule of 60 min infusions
[11] = not given; remark: listed apart in the source
[12] = not given; remark: listed apart in the source
[13] = not given; remark: listed apart in the source
[14] = physiologic pH
[15] = system: hepatic microsomal enzymes; conditions: specific metabolites not identified
[16] = in vivo
P-glycoprotein = P-glycoprotein (Homo sapiens, UniProt P08183)
[17] = local injection; physically decomposes bisantrene
[18] = patients, 90 min infusion at 260 mg/m^2

glycogen synthase kinase-3β (GSK-3β), sequence (P49841 whole entry, species assumed): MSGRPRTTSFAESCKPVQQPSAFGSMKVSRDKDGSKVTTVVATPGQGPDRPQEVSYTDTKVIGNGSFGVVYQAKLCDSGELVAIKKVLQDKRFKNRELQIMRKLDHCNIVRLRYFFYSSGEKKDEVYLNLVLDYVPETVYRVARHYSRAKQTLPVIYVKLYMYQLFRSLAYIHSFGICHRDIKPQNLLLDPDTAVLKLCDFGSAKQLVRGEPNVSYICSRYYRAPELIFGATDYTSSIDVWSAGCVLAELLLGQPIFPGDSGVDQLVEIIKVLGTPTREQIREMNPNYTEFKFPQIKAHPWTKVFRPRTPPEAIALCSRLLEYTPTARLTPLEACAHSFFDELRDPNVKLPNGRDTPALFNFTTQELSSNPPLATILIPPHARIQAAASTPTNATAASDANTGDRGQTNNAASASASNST
P-glycoprotein, sequence (P08183 whole entry): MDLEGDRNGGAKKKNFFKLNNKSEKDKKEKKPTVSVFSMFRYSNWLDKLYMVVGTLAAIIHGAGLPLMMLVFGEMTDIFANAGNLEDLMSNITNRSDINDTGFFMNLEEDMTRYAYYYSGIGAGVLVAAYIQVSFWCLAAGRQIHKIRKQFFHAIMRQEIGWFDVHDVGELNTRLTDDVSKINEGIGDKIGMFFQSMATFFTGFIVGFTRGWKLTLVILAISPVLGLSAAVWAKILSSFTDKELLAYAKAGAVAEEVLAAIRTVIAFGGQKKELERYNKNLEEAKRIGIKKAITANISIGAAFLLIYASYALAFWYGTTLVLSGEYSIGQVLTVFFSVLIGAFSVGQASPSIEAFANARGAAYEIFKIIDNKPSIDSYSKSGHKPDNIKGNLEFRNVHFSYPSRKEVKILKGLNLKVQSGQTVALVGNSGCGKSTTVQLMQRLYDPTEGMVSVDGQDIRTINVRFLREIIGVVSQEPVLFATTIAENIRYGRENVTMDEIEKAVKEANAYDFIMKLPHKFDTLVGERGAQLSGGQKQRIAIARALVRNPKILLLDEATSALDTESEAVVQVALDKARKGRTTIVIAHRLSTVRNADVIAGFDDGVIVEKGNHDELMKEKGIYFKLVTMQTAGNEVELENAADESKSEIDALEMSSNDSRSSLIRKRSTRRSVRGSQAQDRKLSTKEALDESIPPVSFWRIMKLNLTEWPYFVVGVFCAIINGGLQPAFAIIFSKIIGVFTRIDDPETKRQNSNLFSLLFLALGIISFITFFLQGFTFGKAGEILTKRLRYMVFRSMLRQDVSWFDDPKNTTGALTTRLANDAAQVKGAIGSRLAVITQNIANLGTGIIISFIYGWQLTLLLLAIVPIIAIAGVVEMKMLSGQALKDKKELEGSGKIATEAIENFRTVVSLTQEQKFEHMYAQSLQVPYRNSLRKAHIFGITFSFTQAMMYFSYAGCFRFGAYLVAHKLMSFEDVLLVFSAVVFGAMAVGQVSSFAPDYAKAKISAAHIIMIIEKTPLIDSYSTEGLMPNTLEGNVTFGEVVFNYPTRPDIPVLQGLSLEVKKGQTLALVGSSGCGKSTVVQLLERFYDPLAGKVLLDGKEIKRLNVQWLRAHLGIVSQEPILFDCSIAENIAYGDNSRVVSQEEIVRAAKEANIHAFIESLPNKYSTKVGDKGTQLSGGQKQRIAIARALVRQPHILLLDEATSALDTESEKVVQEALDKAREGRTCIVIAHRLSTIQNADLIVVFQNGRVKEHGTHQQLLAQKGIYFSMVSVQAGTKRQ

For `C(=N\NC1=NCCN1)/c1cccc2cc3c(/C=N/NC4=NCCN4)cccc3cc12` [Formula (III)], the “effect at the telomerase level” value (telomerase) is given as “suppressing its catalytic activity”, the apoptosis [1] is given as “absence of apoptosis” and the cell cycle impairment [1] is given as “G2M phase arrest”. For the same compound, the DNA damage response ([1]; telomerase-expressing cells and ALT-positive cell lines, partially co-localize at the telomere) was “formation of γH2AX foci”.

In the case of `CN1C(=O)/C(=C2/C(=O)Nc3ccccc32)c2ccccc21` [Meisoindigo, meisoindigo], the “concentration of inhibition of GSK-3β” value [2] is given as 5 to 50 nM.

In the case of `C(=NNC1=NCCN1)c1c2ccccc2c(C=NNC2=NCCN2)c2ccccc12` [bisantrene, 9,10-anthracenedicarboxaldehyde bis[(4,5-dihydro-1H-imidazol-2-yl)hydrazine]dihydrochloride], the “time after treatment for which cytostatic macrophages could be isolated from peritoneal exudate” value (macrophages; cytostatic in cultures of P815 (mastocytoma) tumor cells) is given as 4 weeks, the “minimal effective in vivo dose” value (macrophages; macrophage activation) is given as about 25 mg/kg and the affinity constants (double-stranded DNA) is given as “above 10^6 M^−1”. For the same compound, the “activity in murine tumor models” value ([3]; P-388 leukemia and B-16 melanoma) was “antitumor activity”, the “activity in cancer models” value ([3]; intravenously (i.v.), intraperitoneally (i.p.), or subcutaneously (s.c.)) was “effective” and the “activity in cancer models” value ([3]; orally) was “inactive”. The “sensitivity in in vitro colony-forming assays” value (Human tumor cells; breast, ovarian, renal, small cell and non-small cell lung cancer, lymphoma, acute myelogenous leukemia, melanoma, gastric, adrenal, head and neck cancer) was “sensitive”, the “Activity in clonogenic assays from 684 patients” value (Human tumor cells; colorectal cancer) was “not in colorectal cancer” and the cross resistance (Human tumor cells; with Adriamycin and mitoxantrone) was “lack of cross resistance”. For the same compound, the “activity in Phase II clinical trials” value (metastatic breast cancer) was “active”, the activity (human colon cancer) was “inactive” and the activity [4] was “inactive”. The DNA strand breaks (L1210 leukemia cells; L1210 leukemia cells, typical of inhibition of DNA topoisomerase II) was “induce protein-associated DNA strand breaks”, the DNA supercoiling (L1210 leukemia cells; indicative of DNA intercalation) was “induce altered DNA supercoiling” and the cardiotoxicity (animals) was “not cardiotoxic”. For the same compound, the “toxicity compared with doxorubicin” value (cardiotoxicity context) was “less than that of the anthracycline doxorubicin”, the toxicities observed (dogs and monkeys, high doses) was “leukopenia, anorexia, diarrhea, injection site necrosis, enterocolitis, muscle degeneration, and pulmonary edema” and the “effect on platelet aggregation” value (Human Platelets) was “inhibit platelet aggregation”. For the same compound, the “administered dose excreted unchanged in the urine” value ([5]; in 24 hr) was 11.3%, the plasma clearance [5, 18] was 735 mL/min/m^2 and the “steady state volume of distribution (Vdss)” value [5, 18] was 1845 L/m^2. The “administered dose found in the urine” value [6] was 3.4±1.1%, the “t½ α” value ([7]; another single dose study) was 3 min and the “t½ β” value ([7]; another single dose study) was 1 h. The “t½ γ” value ([7]; another single dose study) was 8 h, the “t½ α” value ([7]; first single dose study) was 3.44 min and the “t½ β” value ([7]; first single dose study) was 1.33 h. For the same compound, the “t½ γ” value ([7]; first single dose study) was 26.13 h, the volume of distribution [8] was 687 L/m^2 and the plasma clearance [9] was 1306±179 mL/min/m^2. For the same compound, the plasma concentration ([9]; dose of 56 mg/m^2) was 12 ± 6 ng/mL, the plasma concentration ([9]; dose of 260 mg/m^2) was 55 ± 8 ng/mL and the “urinary excretion of the dose” value ([9]; in 24 hr) was 4.6%. For the same compound, the “dose excreted in the urine” value [10] was 7.1%, the “t½ α” value [10] was 0.9 h and the “t½ β” value [10] was 9.7 h. For the same compound, the “dose excreted in the urine” value ([11]; in vivo) was “Less than 7%”, the “route by which the majority of the drug is eliminated” value ([11]; in vivo) was “hepatobiliary route” and the “area under the plasma concentration×time curve” value ([11]; intravenous dose of 260 mg/m^2) was 4400 µg·h/mL. The “area under the plasma concentration×time curve” value ([11]; intravenous dose of 340 mg/m^2) was 5700 µg·h/mL, the beta phase ([11]; three phases of elimination) was “approximately 1.5 hours” and the initial distributive phase ([11]; three phases of elimination) was 6 min. The “bound to plasma proteins” value (plasma proteins) was “More than 95%”, the Maximally tolerated dose ([12]; daily×5, repeat every 4 week (Spiegel et al. 1982)) was 80 mg/m^2 and the “antitumor activity in phase I clinical trials” value ([12]; hepatocellular cancer and hypernephroma (one patient each), lymphoma, myeloma, melanoma, renal cancer, tumors of the bladder and lung) was “showed activity”. For the same compound, the Thrombocytopenia ([12]; human, in vivo) was “mild”, the “major dose-limiting toxic effect” value ([12]; human, in vivo) was “leukopenia” and the Maximally tolerated dose ([12]; monthly (every 3-4 week) (Von Hoff et al. 1981b)) was 260 mg/m^2. For the same compound, the Maximally tolerated dose ([12]; monthly, patients with poor bone marrow reserve (Von Hoff et al. 1981b)) was 240 mg/mg^2, the “dose limiting toxicity (DLT)” value ([12]; phase I doses between 190-430 mg/m^2 q3w) was “neutropenia” and the “doses requiring a central line due to phlebitis” value ([12]; phase I study, 72 h) was “over 156 mg/m^2”. The MTD ([12]; phase I study, over 72 h) was 300 mg/m^2, the nadir for myelosuppression ([12]; schedule of every 3 to 4 weeks) was 9 days and the recovery from myelosuppression ([12]; schedule of every 3 to 4 weeks) was at most 19 days. The Maximally tolerated dose ([12]; weekly×3 (Alberts et al. 1982)) was 200 mg/m^2, the Maximally tolerated dose ([12]; weekly×3, patients with poor bone marrow reserve (Alberts et al. 1982)) was 150 mg/mg^2 and the Maximally tolerated dose ([12]; weekly×3, repeat every 4-5 week (Yap et al. 1982)) was 150 mg/m^2. For the same compound, the patients reporting malaise ([13]; Yap et al. 1982) was “up to one-half of patients”, the “patients who experienced anaphylactoid reactions” value ([13]; following a bisantrene infusion) was “Up to 10%” and the nausea or vomiting ([13]; human, in vivo) was “very little nausea or vomiting”. For the same compound, the “radioangiocardiographic monitoring of cardiac function” value ([13]; patients receiving the drug) was “no decrease in ejection fraction”, the “cardiotoxicity compared with other agents” value ([13]; phase III trial) was “less cardiotoxic than mitoxantrone or doxorubicin” and the “Alopecia (hair loss) compared with doxorubicin” value ([13]; randomized trial in advanced breast cancer) was “less intense”. The aqueous solubility [14] was “lack of aqueous solubility”, the metabolism in vitro [15] was “substrate for hepatic microsomal enzymes” and the Brain levels [16] was “extremely low”. For the same compound, the “tissues with the highest concentration (in descending order)” value [16] was “kidney, liver, gallbladder, spleen, lung, and heart” and the “interaction with P-glycoprotein” value (P-glycoprotein) was “substrate for P-glycoprotein”.

In the case of `O=C([O-])O.[Na+]` [sodium bicarbonate], the extravasation necrosis [17] is listed as “blocked”.
